Laboratory results from PMC8371902, “Phase 1 study of M2698, a p70S6K/AKT dual inhibitor, in patients with advanced cancer” (Journal of Hematology & Oncology, 2021).
Where two headings read alike, the source gives them in different places.

Test system: patients with advanced metastatic cancer
From the text: In this phase 1 study, dose escalation was followed by expansion cohorts of once-daily, oral M2698 in continuous 21-day cycles. Primary objectives were to determine the maximum tolerated dose (MTD), dose-limiting toxicities (DLTs), and recommended phase 2 dose (RP2D). Secondary objectives were to assess safety and tolerability, pharmacokinetics (PK, including food effect) and antitumor activity. Pharmacodynamic biomarker assessments were exploratory. Treatment was discontinued if there was disease progression, toxicity or consent withdrawal.
In Part 1, M2698 monotherapy was investigated in a dose escalation with a food effect cohort. In Part 2, M2698 was investigated as monotherapy (expansion cohort) to further characterize safety, tolerability and pharmacokinetics, and assess antitumor activity in PAM + patients without confounding markers (exploratory).
Dose escalation analysis included all patients who experienced a DLT and those who received ≥ 80% of planned M2698 doses in cycle 1 without experiencing a DLT. Safety analysis included all patients who received ≥ 1 dose of M2698. PK analysis included all patients who received ≥ 1 dose of M2698 and had measurable plasma concentrations. Dose proportionality was tested using the power model (linear regression approach on the log -transformed scale).

NC(=O)c1cccc2c(N[C@H](CN3CCC3)c3ccc(Cl)c(C(F)(F)F)c3)ncnc12 [M2698]
2: M2698-related TEAE: Subjects with at least one event (30 mg n=3) | M2698-related TEAE: Subjects with at least one event (60 mg n=6)
grade 3 lipase increase: DLT observed (60 mg, n = 1, resolved following treatment interruption)
1: M2698-related TEAE: Gamma-glutamyltransferase increased (15 mg n=3) | M2698-related TEAE: Investigations (15 mg n=3) | M2698-related TEAE: Subjects with at least one event (15 mg n=3) | M2698-related TEAE: Diarrhoea (30 mg n=3) | M2698-related TEAE: Eye disorders (30 mg n=3) | M2698-related TEAE: Gastrointestinal disorders (30 mg n=3) | M2698-related TEAE: Hypokalaemia (30 mg n=3) | M2698-related TEAE: Metabolism and nutrition disorders (30 mg n=3) | M2698-related TEAE: Rash maculo-papular (30 mg n=3) | M2698-related TEAE: Skin and subcutaneous tissue disorders (30 mg n=3) | M2698-related TEAE: Vision blurred (30 mg n=3) | M2698-related TEAE: Affect lability (60 mg n=6) | M2698-related TEAE: Alanine aminotransferase increased (60 mg n=6) | M2698-related TEAE: Amylase increased (60 mg n=6) | M2698-related TEAE: Angina pectoris (60 mg n=6) | M2698-related TEAE: Cardiac disorders (60 mg n=6) | M2698-related TEAE: Investigations (60 mg n=6) | M2698-related TEAE: Lipase increased (60 mg n=6) | M2698-related TEAE: Onychomadesis (60 mg n=6) | M2698-related TEAE: Psychiatric disorders (60 mg n=6) | M2698-related TEAE: Skin and subcutaneous tissue disorders (60 mg n=6) | M2698-related TEAE: Abnormal dreams (75 mg n=4)
0: M2698-related TEAE: Abnormal dreams (15 mg n=3) | M2698-related TEAE: Affect lability (15 mg n=3) | M2698-related TEAE: Alanine aminotransferase increased (15 mg n=3) | M2698-related TEAE: Amylase increased (15 mg n=3) | M2698-related TEAE: Anaemia (15 mg n=3) | M2698-related TEAE: Angina pectoris (15 mg n=3) | M2698-related TEAE: Anxiety (15 mg n=3) | M2698-related TEAE: Aphasia (15 mg n=3) | M2698-related TEAE: Ataxia (15 mg n=3) | M2698-related TEAE: Blood and lymphatic system disorders (15 mg n=3) | M2698-related TEAE: Blood creatine phosphokinase increased (15 mg n=3) | M2698-related TEAE: Blood creatinine increased (15 mg n=3) | M2698-related TEAE: Cardiac disorders (15 mg n=3) | M2698-related TEAE: Cognitive disorder (15 mg n=3) | M2698-related TEAE: Constipation (15 mg n=3) | M2698-related TEAE: Decreased appetite (15 mg n=3) | M2698-related TEAE: Delusion (15 mg n=3) | M2698-related TEAE: Depression (15 mg n=3) | M2698-related TEAE: Diarrhoea (15 mg n=3) | M2698-related TEAE: Diarrhoea haemorrhagic (15 mg n=3) | M2698-related TEAE: Dizziness (15 mg n=3) | M2698-related TEAE: Dry eye (15 mg n=3) | M2698-related TEAE: Dry mouth (15 mg n=3) | M2698-related TEAE: Dysgeusia (15 mg n=3) | M2698-related TEAE: Dyspepsia (15 mg n=3) | M2698-related TEAE: Dysphagia (15 mg n=3) | M2698-related TEAE: Energy increased (15 mg n=3) | M2698-related TEAE: Erythema (15 mg n=3) | M2698-related TEAE: Euphoric mood (15 mg n=3) | M2698-related TEAE: Eye disorders (15 mg n=3) | M2698-related TEAE: Fatigue (15 mg n=3) | M2698-related TEAE: Gastrointestinal disorders (15 mg n=3) | M2698-related TEAE: Gastrooesophageal reflux disease (15 mg n=3) | M2698-related TEAE: General disorders and administration site conditions (15 mg n=3) | M2698-related TEAE: Headache (15 mg n=3) | M2698-related TEAE: Hyperhidrosis (15 mg n=3) | M2698-related TEAE: Hypokalaemia (15 mg n=3) | M2698-related TEAE: Hypomagnesaemia (15 mg n=3) | M2698-related TEAE: Insomnia (15 mg n=3) | M2698-related TEAE: Lipase increased (15 mg n=3) | M2698-related TEAE: Lymphopenia (15 mg n=3) | M2698-related TEAE: Metabolism and nutrition disorders (15 mg n=3) | M2698-related TEAE: Mucosal inflammation (15 mg n=3) | M2698-related TEAE: Nausea (15 mg n=3) | M2698-related TEAE: Nervous system disorders (15 mg n=3) | M2698-related TEAE: Nightmare (15 mg n=3) | M2698-related TEAE: Onychomadesis (15 mg n=3) | M2698-related TEAE: Paranoia (15 mg n=3) | M2698-related TEAE: Photosensitivity reaction (15 mg n=3) | M2698-related TEAE: Posterior reversible encephalopathy syndrome (15 mg n=3) | M2698-related TEAE: Pruritus generalised (15 mg n=3) | M2698-related TEAE: Psychiatric disorders (15 mg n=3) | M2698-related TEAE: Rash (15 mg n=3) | M2698-related TEAE: Rash maculo-papular (15 mg n=3) | M2698-related TEAE: Skin and subcutaneous tissue disorders (15 mg n=3) | M2698-related TEAE: Transaminases increased (15 mg n=3) | M2698-related TEAE: Tremor (15 mg n=3) | M2698-related TEAE: Vision blurred (15 mg n=3) | M2698-related TEAE: Vomiting (15 mg n=3) | M2698-related TEAE: White blood cell count decreased (15 mg n=3) | M2698-related TEAE: Abnormal dreams (30 mg n=3) | M2698-related TEAE: Affect lability (30 mg n=3) | M2698-related TEAE: Alanine aminotransferase increased (30 mg n=3) | M2698-related TEAE: Amylase increased (30 mg n=3) | M2698-related TEAE: Anaemia (30 mg n=3) | M2698-related TEAE: Angina pectoris (30 mg n=3) | M2698-related TEAE: Anxiety (30 mg n=3) | M2698-related TEAE: Aphasia (30 mg n=3) | M2698-related TEAE: Ataxia (30 mg n=3) | M2698-related TEAE: Blood and lymphatic system disorders (30 mg n=3) | M2698-related TEAE: Blood creatine phosphokinase increased (30 mg n=3) | M2698-related TEAE: Blood creatinine increased (30 mg n=3) | M2698-related TEAE: Cardiac disorders (30 mg n=3) | M2698-related TEAE: Cognitive disorder (30 mg n=3) | M2698-related TEAE: Constipation (30 mg n=3) | M2698-related TEAE: Decreased appetite (30 mg n=3) | M2698-related TEAE: Delusion (30 mg n=3) | M2698-related TEAE: Depression (30 mg n=3) | M2698-related TEAE: Diarrhoea haemorrhagic (30 mg n=3) | M2698-related TEAE: Dizziness (30 mg n=3) | M2698-related TEAE: Dry eye (30 mg n=3) | M2698-related TEAE: Dry mouth (30 mg n=3) | M2698-related TEAE: Dysgeusia (30 mg n=3) | M2698-related TEAE: Dyspepsia (30 mg n=3) | M2698-related TEAE: Dysphagia (30 mg n=3) | M2698-related TEAE: Energy increased (30 mg n=3) | M2698-related TEAE: Erythema (30 mg n=3) | M2698-related TEAE: Euphoric mood (30 mg n=3) | M2698-related TEAE: Fatigue (30 mg n=3) | M2698-related TEAE: Gamma-glutamyltransferase increased (30 mg n=3) | M2698-related TEAE: Gastrooesophageal reflux disease (30 mg n=3) | M2698-related TEAE: General disorders and administration site conditions (30 mg n=3) | M2698-related TEAE: Headache (30 mg n=3) | M2698-related TEAE: Hyperhidrosis (30 mg n=3) | M2698-related TEAE: Hypomagnesaemia (30 mg n=3) | M2698-related TEAE: Insomnia (30 mg n=3) | M2698-related TEAE: Investigations (30 mg n=3) | M2698-related TEAE: Lipase increased (30 mg n=3) | M2698-related TEAE: Lymphopenia (30 mg n=3) | M2698-related TEAE: Mucosal inflammation (30 mg n=3) | M2698-related TEAE: Nausea (30 mg n=3) | M2698-related TEAE: Nervous system disorders (30 mg n=3) | M2698-related TEAE: Nightmare (30 mg n=3) | M2698-related TEAE: Onychomadesis (30 mg n=3) | M2698-related TEAE: Paranoia (30 mg n=3) | M2698-related TEAE: Photosensitivity reaction (30 mg n=3) | M2698-related TEAE: Posterior reversible encephalopathy syndrome (30 mg n=3) | M2698-related TEAE: Pruritus generalised (30 mg n=3) | M2698-related TEAE: Psychiatric disorders (30 mg n=3) | M2698-related TEAE: Rash (30 mg n=3) | M2698-related TEAE: Transaminases increased (30 mg n=3) | M2698-related TEAE: Tremor (30 mg n=3) | M2698-related TEAE: Vomiting (30 mg n=3) | M2698-related TEAE: White blood cell count decreased (30 mg n=3) | M2698-related TEAE: Abnormal dreams (60 mg n=6) | M2698-related TEAE: Anaemia (60 mg n=6) | M2698-related TEAE: Anxiety (60 mg n=6) | M2698-related TEAE: Aphasia (60 mg n=6) | M2698-related TEAE: Ataxia (60 mg n=6) | M2698-related TEAE: Blood and lymphatic system disorders (60 mg n=6) | M2698-related TEAE: Blood creatine phosphokinase increased (60 mg n=6) | M2698-related TEAE: Blood creatinine increased (60 mg n=6) | M2698-related TEAE: Cognitive disorder (60 mg n=6) | M2698-related TEAE: Constipation (60 mg n=6) | M2698-related TEAE: Decreased appetite (60 mg n=6) | M2698-related TEAE: Delusion (60 mg n=6) | M2698-related TEAE: Depression (60 mg n=6) | M2698-related TEAE: Diarrhoea (60 mg n=6) | M2698-related TEAE: Diarrhoea haemorrhagic (60 mg n=6) | M2698-related TEAE: Dizziness (60 mg n=6) | M2698-related TEAE: Dry eye (60 mg n=6) | M2698-related TEAE: Dry mouth (60 mg n=6) | M2698-related TEAE: Dysgeusia (60 mg n=6) | M2698-related TEAE: Dyspepsia (60 mg n=6) | M2698-related TEAE: Dysphagia (60 mg n=6) | M2698-related TEAE: Energy increased (60 mg n=6) | M2698-related TEAE: Erythema (60 mg n=6) | M2698-related TEAE: Euphoric mood (60 mg n=6) | M2698-related TEAE: Eye disorders (60 mg n=6) | M2698-related TEAE: Fatigue (60 mg n=6) | M2698-related TEAE: Gamma-glutamyltransferase increased (60 mg n=6) | M2698-related TEAE: Gastrointestinal disorders (60 mg n=6) | M2698-related TEAE: Gastrooesophageal reflux disease (60 mg n=6) | M2698-related TEAE: General disorders and administration site conditions (60 mg n=6) | M2698-related TEAE: Headache (60 mg n=6) | M2698-related TEAE: Hyperhidrosis (60 mg n=6) | M2698-related TEAE: Hypokalaemia (60 mg n=6) | M2698-related TEAE: Hypomagnesaemia (60 mg n=6) | M2698-related TEAE: Insomnia (60 mg n=6) | M2698-related TEAE: Lymphopenia (60 mg n=6) | M2698-related TEAE: Metabolism and nutrition disorders (60 mg n=6) | M2698-related TEAE: Mucosal inflammation (60 mg n=6) | M2698-related TEAE: Nausea (60 mg n=6) | M2698-related TEAE: Nervous system disorders (60 mg n=6) | M2698-related TEAE: Nightmare (60 mg n=6) | M2698-related TEAE: Paranoia (60 mg n=6) | M2698-related TEAE: Photosensitivity reaction (60 mg n=6) | M2698-related TEAE: Posterior reversible encephalopathy syndrome (60 mg n=6) | M2698-related TEAE: Pruritus generalised (60 mg n=6) | M2698-related TEAE: Rash (60 mg n=6) | M2698-related TEAE: Rash maculo-papular (60 mg n=6) | M2698-related TEAE: Transaminases increased (60 mg n=6) | M2698-related TEAE: Tremor (60 mg n=6) | M2698-related TEAE: Vision blurred (60 mg n=6) | M2698-related TEAE: Vomiting (60 mg n=6) | M2698-related TEAE: White blood cell count decreased (60 mg n=6) | M2698-related TEAE: Affect lability (75 mg n=4) | M2698-related TEAE: Alanine aminotransferase increased (75 mg n=4) | M2698-related TEAE: Amylase increased (75 mg n=4) | M2698-related TEAE: Anaemia (75 mg n=4) | M2698-related TEAE: Angina pectoris (75 mg n=4) | M2698-related TEAE: Anxiety (75 mg n=4) | M2698-related TEAE: Aphasia (75 mg n=4)
